The values below come from patent publication US9527807B2, “Sulfonamide derivative and use thereof” (Takeda Pharmaceutical Company Limited, priority 2011, dated 2016).

T1 sequence (P42261 19-906 isoform P42261-2 limits assumed): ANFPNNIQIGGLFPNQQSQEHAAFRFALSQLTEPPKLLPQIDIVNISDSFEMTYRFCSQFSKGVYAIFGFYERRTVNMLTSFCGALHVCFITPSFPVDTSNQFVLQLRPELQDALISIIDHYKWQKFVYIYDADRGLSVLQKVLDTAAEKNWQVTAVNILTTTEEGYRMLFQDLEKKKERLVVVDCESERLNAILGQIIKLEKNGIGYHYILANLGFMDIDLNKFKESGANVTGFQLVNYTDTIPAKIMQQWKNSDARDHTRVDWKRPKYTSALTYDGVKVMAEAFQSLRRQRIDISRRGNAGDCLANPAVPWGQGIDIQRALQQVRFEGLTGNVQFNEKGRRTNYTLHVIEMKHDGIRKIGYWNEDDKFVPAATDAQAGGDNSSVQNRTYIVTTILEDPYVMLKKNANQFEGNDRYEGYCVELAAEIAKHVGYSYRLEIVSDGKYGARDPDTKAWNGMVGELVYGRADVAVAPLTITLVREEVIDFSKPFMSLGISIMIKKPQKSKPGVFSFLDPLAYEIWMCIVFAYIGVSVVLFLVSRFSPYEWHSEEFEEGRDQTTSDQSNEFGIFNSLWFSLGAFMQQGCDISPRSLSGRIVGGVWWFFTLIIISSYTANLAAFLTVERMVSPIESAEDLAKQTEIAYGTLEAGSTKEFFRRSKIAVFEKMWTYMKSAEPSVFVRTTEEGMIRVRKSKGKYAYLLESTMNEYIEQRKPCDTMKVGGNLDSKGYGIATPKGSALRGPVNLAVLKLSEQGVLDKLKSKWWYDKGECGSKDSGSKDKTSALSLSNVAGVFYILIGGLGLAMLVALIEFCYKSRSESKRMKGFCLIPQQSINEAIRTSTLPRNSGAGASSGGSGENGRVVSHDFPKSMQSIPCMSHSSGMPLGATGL
T1 sequence (Q9Y698 whole entry partner): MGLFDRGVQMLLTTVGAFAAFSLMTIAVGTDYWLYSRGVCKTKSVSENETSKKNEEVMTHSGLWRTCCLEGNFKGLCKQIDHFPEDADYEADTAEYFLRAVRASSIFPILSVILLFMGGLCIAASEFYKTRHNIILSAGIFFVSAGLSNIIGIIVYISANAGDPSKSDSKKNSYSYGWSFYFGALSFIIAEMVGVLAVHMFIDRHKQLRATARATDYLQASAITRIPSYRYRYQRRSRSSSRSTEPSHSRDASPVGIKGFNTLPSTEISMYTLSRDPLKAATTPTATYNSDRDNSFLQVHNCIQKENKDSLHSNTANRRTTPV

The assay addresses T1, AMPA receptor (human GluR1 flip/stargazin expressed in CHO-K1 cells) (Homo sapiens, UniProt P42261).
T1 construct: expressed in transfected cells; host or cells: CHO-K1
Kind of assay: AMPA receptor function enhancing activity using calcium influx as index. Type of assay: cell-based. Conditions: change in fluorescence level in 3 min, 100% = 3 mM glutamic acid + 300 μM cyclothiazide, 0% = 3 mM glutamic acid only. The text has this: Human GluR1 flip cDNA was amplified by PCR using forward primer […] (SEQ ID NO: 1) and reverse primer […] (SEQ ID NO: 2) artificially synthesized using human brain-derived cDNA (BD Bio science) as a template. The amplified product was digested with restriction enzymes EcoRI, NotI (TAKARA SHUZO CO. LTD.), and incorporated into the same site of pcDNA3.1(+) (Invitrogen) to construct pcDNA3.1(+)/human GluR1 flip gene. Human stargazin cDNA was amplified by PCR using forward primer […] (SEQ ID NO: 3) and reverse primer. […] (SEQ ID NO: 4) artificially synthesized using human hippocampus cDNA as a template. The amplified product was digested with restriction enzymes XhoI, BamHI (TAKARA SHUZO CO. LTD.), and incorporated into the same site of pcDNA3.1(−) (Invitrogen) to construct pcDNA3.1 Zeo(−)/human stargazin gene.
(2) Construction of GluR1 Flip/Stargazin Expressing Cell
CHO-K1 cells passaged in a culture medium (Ham's F12 medium (Invitrogen) added with 10% inactivated fetal bovine serum (Morgate) and penicillin, streptomycin (Invitrogen)) were detached with 0.05% trypsin, 0.53 mM EDTA (Invitrogen) diluted with D-PBS(−). The detached cells were suspended in a culture medium, and recovered by a centrifugation operation at 1,000 rpm. The recovered cells were suspended again in D-PBS(−), and added to a 0.4 cm electroporation cuvette (BioRad). pcDNA3.1(+)/human GluR1 flip gene (5 μg) and pcDNA3.1 Zeo(−)/human stargazin gene (15 μg) were added, and the mixture was introduced into CHO-K1 cells using Gene Pulser II (BioRad) under the conditions of 950 μFd, […]. The introduced cells were cultured overnight in a culture medium and, the next day, plated in a 96 well plate at 250 cells/well using a selection medium (culture medium added with Zeocin (Invitrogen) to 250 μg/mL). Clones showing drug resistance were selected, and GluR1 flip/stargazin expressing clones were selected by an assay method using calcium influx as an index as shown below.
(3) Measurement Method of AMPA Receptor Function Enhancing Activity of Compound Using Calcium Influx as Index
CHO-K1/GluR1 flip/stargazin expressing cells were plated on a 384 well black transparent bottom plate (FMAT4307723) at 0.5×10^4 cells/well, and cultured in a 37° C., CO2 incubator (SANYO Electric Co., Ltd.) for 2 days. The medium in the cell plate was removed, and a calcium indicator (Calcium 4 Assay Kit, Molecular. Devices) containing 1.25 mM probenecid (Invitrogen) was added at 25 μL/well and the well was left standing in 37° C., CO2 incubator for 1 hr. The cell plate was set in FLITRtetra (Molecular Devices), a mixture (12.5 μL) of 9 mM glutamic acid diluted with assay buffer B (HBSS (Invitrogen), 0.1% BSA, 10 mM HEPES) and a test compound was added, and the amount of change in fluorescence level in 3 min was measured. In the definition here, the amount of change in fluorescence level of well added with glutamic acid at final concentration 3 mM and 300 μM cyclothiazide (TOCRIS) is 100%, the amount of change in fluorescence level of well added only with glutamic acid at final concentration 3 mM is 0%, and the compound activity was calculated according to the following formula. activity (%)=(X−C)/(T−C)×100 T: amount of change in fluorescence level of well added with glutamic acid at final concentration 3 mM and 300 μM cyclothiazide C: amount of change in fluorescence level of well added only with glutamic acid at final concentration 3 mM X: amount of change in fluorescence level of well added with to test compound
For the molecule `CCS(=O)(=O)N[C@H]1CCN(C(C)=O)C[C@@H]1COc1ccc(CCC#N)cc1` (relative stereo) [Example 2, trans-N-[1-acetyl-3-{[4-(2-cyanoethyl)phenoxy]methyl}piperidin-4-yl]ethanesulfonamide], the “activity (%)” value came out at 38%.

For `CCS(=O)(=O)N[C@H]1CCN(C(C)=O)C[C@@H]1COc1ccc(-n2cccn2)cc1` (relative stereo) [Example 3, trans-N-[1-acetyl-3-{[4-(1H-pyrazol-1-yl)phenoxy]methyl}piperidin-4-yl]ethanesulfonamide], the “activity (%)” value stood at 57%.

As to `CCS(=O)(=O)N[C@H]1CCOC[C@@H]1COc1ccc(C2CC2)cc1` (relative stereo) [Example 7, trans-N-{3-[(4-cyclopropylphenoxy)methyl]tetrahydro-2H-pyran-4-yl}ethanesulfonamide], the “activity (%)” value turned out to be 91%.

As to `CCS(=O)(=O)N[C@H]1CCCC[C@@H]1COc1ccc(C(C)C)cc1` (relative stereo) [Example 8, trans-N-[2-{[4-(1-methylethyl)phenoxy]methyl}cyclohexyl]ethanesulfonamide], the “activity (%)” value is listed as 79%.

Regarding `O=S(=O)(N[C@@H]1CCCC[C@H]1COc1ccc(C2CC2)cc1)C1CC1` (relative stereo) [Example 12, trans-N-[2-[(4-cyclopropylphenoxy)methyl]cyclohexyl]cyclopropanesulfonamide], the “activity (%)” value was found to be 72%.

For `CCS(=O)(=O)N[C@H]1CCC[C@@H]1COc1ccc(C(C)C)cc1` (relative stereo) [Example 15, trans-N-[2-{[4-(1-methylethyl)phenoxy]methyl}cyclopentyl]ethanesulfonamide], the “activity (%)” value turned out to be 88%.

For the molecule `CC(C)S(=O)(=O)N[C@H]1CCCC[C@@H]1COc1ccc(C2CC2)cc1` (relative stereo) [Example 21, trans-N-{2-[(4-cyclopropylphenoxy)methyl]cyclohexyl}propane-2-sulfonamide], the “activity (%)” value is reported as 82%.

Regarding `CCS(=O)(=O)N[C@H]1CCOC[C@@H]1COc1ccc(C(C)C)cc1` (relative stereo) [Example 34, trans-N-{3-[(4-isopropylphenoxy)methyl]tetrahydro-2H-pyran-4-yl}ethanesulfonamide], the “activity (%)” value is 77%.

Consider `CCS(=O)(=O)N[C@H]1CCC(=O)C[C@@H]1COc1ccc(C(C)C)cc1` (relative stereo) [Example 39, trans-N-[2-{[4-(1-methylethyl)phenoxy]methyl}-4-oxocyclohexyl]ethanesulfonamide], for which the “activity (%)” value amounted to 81%.

In the case of `CCS(=O)(=O)N[C@H]1CCCC[C@@H]1COc1ccc(C2COC2)cc1` (relative stereo) [Example 43, trans-N-{2-[(4-oxetan-3-ylphenoxy)methyl]cyclohexyl}ethanesulfonamide], the “activity (%)” value was 86%.

As for `CCS(=O)(=O)N[C@@H]1CCCC[C@H]1COc1ccc(CCC#N)cc1` (relative stereo) [Example 50, trans-N-[2-{[4-(2-cyanoethyl)phenoxy]methyl}cyclohexyl] ethanesulfonamide], the “activity (%)” value came to 78%.

On to `CCS(=O)(=O)N[C@H]1CCCC[C@@H]1COc1ccc(OC(F)F)cc1` (relative stereo) [Example 52, trans-N-[2-{[4-(difluoromethoxy)phenoxy]methyl}cyclo-hexyl]ethanesulfonamide], for which the “activity (%)” value is 69%.

`CCS(=O)(=O)N[C@H]1CCCC[C@@H]1COc1ccc(-n2cccn2)cc1` (relative stereo) [Example 60, trans-N-[2-{[4-(1H-pyrazol-1-yl)phenoxy]methyl}cyclohexyl]ethane-sulfonamide]: the “activity (%)” value is on record as 80%.

As to `CCS(=O)(=O)N[C@H]1CCCC[C@@H]1COc1ccc(C(C)=O)cc1` (relative stereo) [Example 89, trans-N-{2-[(4-acetylphenoxy)methyl]cyclohexyl}ethane-sulfonamide], the “activity (%)” value is given as 75%.

`CCS(=O)(=O)N[C@H]1COCC[C@@H]1COc1ccc(C(C)C)cc1` (relative stereo) [Example 95, trans-N-[4-{[4-(1-methylethyl)phenoxy]methyl}tetrahydro-2H-pyran-3-yl]ethanesulfonamide]: the “activity (%)” value turned out to be 73%.

For `CCS(=O)(=O)N[C@H]1CCC(F)(F)C[C@@H]1COc1ccc(-n2cccn2)cc1` (relative stereo) [Example 130, trans-N-[4,4-difluoro-2-{[4-(1H-pyrazol-1-yl)phenoxy]methyl}cyclohexyl]ethanesulfonamide], the “activity (%)” value turned out to be 90%.

On to `CCS(=O)(=O)N[C@H]1CCOC[C@@H]1COc1ccc(C(C)=O)c(F)c1` (relative stereo) [Example 131, trans-N-{3-[(4-acetyl-3-fluorophenoxy)methyl]tetrahydro-2H-pyran-4-yl}ethanesulfonamide], for which the “activity (%)” value is 89%.

On to `CCS(=O)(=O)N[C@H]1CCOC[C@@H]1COc1ccc(-n2cc(C)cn2)cc1` (relative stereo) [Example 134, trans-N-[3-{[4-(4-methyl-1H-pyrazol-1-yl)phenoxy]methyl}tetrahydro-2H-pyran-4-yl]ethanesulfonamide], for which the “activity (%)” value was 92%.

With `CCS(=O)(=O)N[C@H]1CCOC[C@@H]1COc1ccc(C(C)=O)cc1` (relative stereo) [Example 135, trans-N-{3-[(4-acetylphenoxy)methyl]tetrahydro-2H-pyran-4-yl}ethanesulfonamide], the “activity (%)” value is 88%.

Turning to `CCS(=O)(=O)N[C@H]1CCOC[C@@H]1COc1ccc(C(C)=O)cc1F` (relative stereo) [Example 136, trans-N-{3-[(4-acetyl-2-fluorophenoxy)methyl]tetrahydro-2H-pyran-4-yl}ethanesulfonamide], the “activity (%)” value is reported as 85%.

Turning to `CCS(=O)(=O)N[C@H]1CCOC[C@@H]1COc1ccc(-c2ccccn2)cc1` (relative stereo) [Example 137, trans-N-{3-[(4-pyridin-2-ylphenoxy)methyl]tetrahydro-2H-pyran-4-yl}ethanesulfonamide], the “activity (%)” value is on record as 91%.

Regarding `CCS(=O)(=O)N[C@H]1CCOC[C@@H]1COc1ccc(-c2cccnc2)cc1` (relative stereo) [Example 138, trans-N-{3-[(4-pyridin-3-ylphenoxy)methyl]tetrahydro-2H-pyran-4-yl}ethanesulfonamide], the “activity (%)” value is reported as 95%.

Consider `CCS(=O)(=O)N[C@H]1CCOC[C@@H]1COc1ccc(-n2cnc(C)c2)cc1` (relative stereo) [Example 139, trans-N-[3-{[4-(4-methyl-1H-imidazol-1-yl)phenoxy]methyl}tetrahydro-2H-pyran-4-yl]ethanesulfonamide], for which the “activity (%)” value came out at 97%.

With `CCS(=O)(=O)N[C@H]1CCOC[C@@H]1COc1ccc(-n2cc(Cl)cn2)cc1` (relative stereo) [Example 140, trans-N-[3-{[4-(4-chloro-1H-pyrazol-1-yl)phenoxy]methyl}tetrahydro-2H-pyran-4-yl]ethanesulfonamide], the “activity (%)” value came to 90%.

Regarding `CCS(=O)(=O)N[C@H]1CCC(F)(F)C[C@@H]1COc1ccc(-n2cc(C)cn2)cc1` (relative stereo) [Example 141, trans-N-[4,4-difluoro-2-{[4-(4-methyl-1H-pyrazol-1-yl)phenoxy]methyl}cyclohexyl]ethanesulfonamide], the “activity (%)” value is reported as 78%.

Turning to `CCS(=O)(=O)N[C@H]1CCC(F)(F)C[C@@H]1COc1ccc(-n2ccc(C)n2)cc1` (relative stereo) [Example 142, trans-N-[4,4-difluoro-2-{[4-(3-methyl-1H-pyrazol-1-yl)phenoxy]methyl}cyclohexyl]ethanesulfonamide], the “activity (%)” value was found to be 54%.
